In patent US10722528B2, “Compositions and methods for inhibiting metastasis” (Augusta University Research Institute, Inc., priority 2018, dated 2020):

How the values were obtained:
[1] = test system: EMT6-Luc tumor; experiment: In vivo gMDSC induction: EMT6-Luc tumor model in BALB/c mice injected with recombinant protein; parameters: species or system mouse; settings: for tumor cell killing activity of T cells from treated mice (annexin V+ cells): compared to control treated mice; for levels of caspase 3 mediated apoptosis: treated mice versus saline
Experimental: (§1) In vivo gMDSC induction: EMT6 tumor model was selected as platform to examine the role of the proteins in regulation gMDSCs and the resultant metastatic cascade. EMT6-Luc cells were implanted into the mammary fat pads of BALB/c mice (purchased from Charles Rivers at NCI). The mice were then injected (via tail vein) either with saline (control), recombinant S100A9 or Calprotectin (100 ng/mouse) every alternate day for three weeks.
as §1, with “EMT6” for “In vivo gMDSC induction: EMT6”

[2] = test system: T cell proliferation; experiment: In vitro suppression: bone marrow cells treated with recombinant protein plus GM-CSF, then co-incubated with activated CFSE labeled T cells; format: cell-based, mouse; settings: 7 days, then 3 days with activated CFSE labeled T cells
Experimental: (§2) In vitro suppression: Multigrams of recombinant Calprotectin, S100A8 and S100A9 proteins were isolated, purified and confirmed for their activity with commercially available proteins. Bone marrow cells were treated with recombinant S100A8 (A8), S100A(9) or Calprotectin (CALP) in presence of GM-CSF (Granulocyte Macrophage-Colony Stimulating Factor Protein) in vitro for 7 days for gMDSC differentiation. The cells were then co-mixed and incubated 3 more days with activated CFSE labeled T cells.
as §2, with “Multigrams” for “In vitro suppression: Multigrams”, “recombinant S10A8” for “recombinant S100A8”, “(Granulocyte Macrophage—Colony” for “(Granulocyte Macrophage-Colony”

[3] = test system: MDSC-related genes in bone marrow cells; experiment: Expression of MDSC-related genes in bone marrow cells treated with GCSF and compound; format: cell-based, mouse
Source text: FIG. 13A is a bar graph showing Ly6c+Ly6g+CD11b+gMDSCs differentiation in vitro in bone marrow cells treated with GCSF and the lead NCI compounds identified by computational screen against S100A8/A9 (calprotectin). FIGS. 13B-13K are representative flow cytometry plots showing the expression of CD11b and Ly6C in bone marrow cells treated with compounds 4, 10, 13, and 15. FIGS. 13L-13R are bar graphs showing the expression of MDSC-related genes (S100A8, FIG. 13L; S100A9, FIG. 13M; GCSF, FIG. 13N; IL1A, FIG. 13O; NOS2, FIG. 13P; CYB1, FIG. 13Q; and IL4R, FIG. 13R) in bone marrow cells treated with GCSF (black bars), GCSF+#4 (dark gray bars), GCSF+#10 (light gray bars), or untreated (white bars).
P values<0.05 were considered statistically significant.

[4] = test system: gMDSC differentiation in bone marrow cells; experiment: In vitro screening of gMDSC differentiation in bone marrow cells (GM-CSF/G-CSF, flow cytometry); format: cell-based, mouse; settings: GM-CSF, 3 days, flow cytometry (Ly6c+Ly6g+CD11b+)
Experimental: BALB/c mice were euthanized by CO2 asphyxiation. The femur bones were carefully resected under sterile conditions, cleaned to remove the attached muscle/tissue, and cleaned with 70% ethanol. The bones were then transferred on to a sterile Petri dish with culture medium Roswell Park Memorial Institute (RPMI)-1640. Both ends of femurs were carefully trimmed using sterile, sharp scissors to expose the interior marrow shaft. The contents of marrow were flushed with 2-4 ml of culture medium (RPMI-1640 supplemented with 10% FBS) using 1-ml insulin syringe with a 29G×½ needle. Later, the bone marrow was flushed out onto a 70 μm nylon cell strainer placed in a 50 ml Falcon conical tube (The bones should appear white once all the marrow has been expelled out completely). The collected BM cell suspension was further diluted with 20 ml of phosphate buffer saline (PBS), and the cell suspension was centrifuged at 1,000 rpm […]. The supernatant and the cell pellet were collected using red blood cell (RBC) lysis buffer and incubated for 5 minutes. 5-10 mL of PBS was added, and the solution was centrifuged at 1,000 rpm for 5 minutes. The supernatant was discarded and the cell pellet was washed with PBS, and re-centrifuged at 1,000 rpm for 5 minutes. The cells were re-suspended with RPMI medium containing 10% FBS and used for assays or culture.
Computational screening of certain select NCI chemical library was performed again the crystal structure of calprotectin. 40 lead compounds were identified with potential to bind to calprotectin and suppress gMDSC differentiation. In vitro screening using the 40 lead compounds was performed. Bone marrow cells were counted using hemocytometer or Beckman Z2 coulter counter and suspended in culture medium (RPMI 1640+10% FBS+1% penicillin/streptomycin) to achieve a final cell density of 2×10^6 BM cells/well. T20 ng/mL of recombinant mouse GM-CSF (Granulocyte Macrophage—Colony Stimulating Factor Protein) was added followed by 50 ng/mL G-CSF or individual selected drug. […]

[5] = test system: EMT6 cells
Experimental: (§3) FIGS. 5A-5D are bar graphs showing expression of IL6 (FIG. 5A), IL1A (FIG. 5B), TGFB (FIG. 5C), and Vimentin (FIG. 5D) in EMT6 cells (white bars), EMT6 cells+0.5 mM DPTA (gray bars), and EMT6 cells+2.5 mM DPTA (black bars). FIG. 5E-5H are bar graphs showing expression of IL6 (FIG. 5E), IL1A (FIG. 5F), TGFB (FIG. 5G), and Vimentin (FIG. 5H) in EMT6 cells (white bars), EMT6 cells+mMDSCs (gray bars), and EMT6 cells+mMDSCs/1400W (black bar). FIG. 5I is a representative Western blot showing pSTAT3, STAT3, pSTAT1, STAT1, Vimentin, Twist, and actin expression in untreated EMT6 cell, or EMT6 cells treated with 0.5 mM or 2.5 mM DPTA, mMDSCs, or mMDSCs+1400W.
(§4) For RT-PCR analyses, KiCqStart SYBR Green predesigned primers (Sigma) were used for the following genes: […]
(§5) The relative fold change was measured by 2-ΔΔCt formula compared to the control cells. Means and differences of the means with 95% confidence intervals were obtained using GraphPad Prism (GraphPad Software Inc.). Two-tailed Student's t-test was used for unpaired analysis comparing average expression between conditions. P values<0.05 were considered statistically significant.

[6] = test system: 4T1 tumor; experiment: Metastatic 4T1-injected mice treated with drug #10 (bioluminescence imaging, MDSC infiltration); format: in vivo, mouse
Source text: FIG. 14A-14D are bioluminescence images of metastatic 4T1-injected mice untreated or treated with drug #10. FIG. 14E-14H are bar graphs showing the extent of mMDSC infiltration in the primary tumor (FIG. 14H) and the BM (FIG. 14E), spleen (FIG. 14F), and lung (FIG. 14G) of metastatic 4T1-injected mice untreated (black bars) or treated with drug #10 (gray bars). FIG. 14I-14L are bar graphs showing the extent of gMDSC infiltration in the primary tumor (FIG. 14L) and the BM (FIG. 14I), spleen (FIG. 14J), and lung (FIG. 14K) of metastatic 4T1-injected mice untreated (black bars) or treated with drug #10 (gray bars).
Luciferase expressing 4T1 or EMT6 murine breast cancer cells (50,000 cells per mice) were orthotopically implanted into the fat pads of 5-week-old BALB/c mice. (AT-3 cells in C57BL/J6 mice) and these mice were imaged utilizing the Caliper IVIS imaging systems. To analyse MDSCs, tumor-bearing mice were sacrificed every week and single-cell suspensions were prepared from bone marrows, spleens, lungs and tumor tissues. Bone marrow cells were obtained by flushing bones with PBS using a 28G 1/2 syringe. […]
These cells were labeled with fluorescence-conjugated Ly6C (#128015-dilution 1/400), Ly6G (#127605-dilution 1/100) and CD11b (#101208-Dilution 1/200) antibodies (Biolegend) and analyzed on a FACS canto flow cytometer (BD Biosciences).

[7] = test system: EMT6 cells co-cultured with mMDSCs; experiment: EMT6 cells co-cultured with mMDSCs and NOS2 inhibitor 1400W (qPCR, Western blot); format: cell-based, mouse
Experimental: as §3, §4, §5

[8] = 100 ng/mouse via tail vein every alternate day for three weeks

## S100A9: recombinant S100A9 protein, subunit of calprotectin
[1]
  tumor cell killing activity of T cells from treated mice (annexin V+ cells): moderate activity
  levels of caspase 3 mediated apoptosis: reduced

## Calprotectin: recombinant complex of the mammalian proteins S100A8 and S100A9
[1]; [8]
  CD8+ T cells: increase in CD8+ T cells
  primary tumor growth and spontaneous metastasis: enhanced primary tumor growth and spontaneous metastasis to the lungs and liver
[1]
  tumor cell killing activity of T cells from treated mice (annexin V+ cells): significantly suppressed the tumor cell killing activity
  levels of caspase 3 mediated apoptosis: reduced
[2]
  suppression of T cell proliferation by protein treated gMDSCs: suppressed T cell proliferation more efficiently compared to S100A9

## O=C1c2cccc(Oc3ccccc3)c2C(=O)c2cccc(Oc3ccccc3)c21 [compound 4, 1,5-diphenoxyanthracen-9-10-dione]
[3]
  expression of MDSC-related genes S100A8, S100S9, GCSF, IL1A, NOS2, CYBB1, and IL4R: reduced the expression
[4]
  inhibition of gMDSC differentiation: significant inhibition of gMDSC differentiation

## NCCCN(CCCN)/[N+]([O-])=N/O [DPTA]
[5]; 0.5 mM and 2.5 mM DPTA
  expression of IL1A, IL6, TGFB1 and VIM (qPCR): induced the expressions of indicated genes
[5]; 0.5 mM or 2.5 mM DPTA
  activation of pStat1 and pStat3 signaling pathways and protein levels of EMT markers vimentin and twist (Western blot): induced the activation of pStat1 and pStat3 signaling pathways and protein levels of EMT markers

## CC12CCC3C(CCC4Cc5[nH]c6ccccc6c5CC43C)C1CCC2O (stereo not shown) [compound 10, 12a,14a-dimethyl-1,2,3,3a,3b,4,5,5a,6,7,12,12a,12b,13,14,14a-hexadecahydrocyclopenta[5,6]naphtho[2,1-b]carbazol-1-ol]
[3]
  expression of MDSC-related genes S100A8, S100S9, GCSF, IL1A, NOS2, CYBB1, and IL4R: reduced the expression
[6]; bioluminescence images
  tumor growth and metastasis: suppresses tumor growth and metastasis
[6]; primary tumor, BM, spleen, lung
  gMDSC infiltration into the tumor and distant organ sites: reduce gMDSC infiltration
[4]
  inhibition of gMDSC differentiation: significant inhibition of gMDSC differentiation

## O=[N+]([O-])C1C(c2ccccc2)C12c1ccccc1-c1ccccc12 (stereo not shown) [compound 27]
[4]
  inhibition of gMDSC differentiation: significant inhibition of gMDSC differentiation

## CC(=N)NCc1cccc(CN)c1 [1400 W]
[7]
  activation of pStat1 and pStat3 pathways and EMT markers vimentin and twist (Western blot): suppressed the activation of the latter pathways and EMT markers
  mMDSC-induced transcription of IL1A, IL6, TGFB1 and VIM (qPCR): suppress the mMDSC-induced transcription of these genes

B1: S100A8: recombinant S100A8 protein, subunit of calprotectin (protein, UniProt P05109 1-93, looked up)
Protein S100-A8: MLTELEKALNSIIDVYHKYSLIKGNFHAVYRDDLKKLLETECPQYIRKKGADVWFKELDINTDGAVNFQEFLILVIKMGVAAHKKSHEESHKE
[2]
  suppression of T cell proliferation by protein treated gMDSCs: no significant effect
